Source: US8476255B2, “Histone deacetylase inhibitors” (Orchid Chemicals & Pharmaceuticals Limited, priority 2007, dated 2013)

Assays:
[1] = test system: HDAC (Mouse Liver Extract); assay: HDAC inhibition assay using Boc-Lys(Ac)-AMC substrate; format: biochemical; settings: mouse liver enzyme
Method in brief: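 Boc-Lys(Ac)-AMC substrate incubated with mouse liver extract as HDAC source, 5 min preincubation then 30 min at 37° C. Trypsin stop solution added (37° C., 15-30 min) to release AMC, read at ex 360/em 460 nm; buffer-only and substrate-only wells as blanks.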

NCIH460 (lung) cells = assay: Anti-cancer screen (MTT), NCIH460; format: cell-based; settings: Homo sapiens, NCI-H460, NCIH460, 48 hours, MTT; for GI50: read-out: Cell growth inhibition NCIH460 (Lung) GI50; for LC50: read-out: Cell growth inhibition NCIH460 (Lung) LC50; for IC (TGI): read-out: Cell growth inhibition NCIH460 (Lung) TGI
Method in brief: (§1)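 Five-point MTT cytotoxicity test with 48 h compound exposure (final 0.01–100 μM, triplicate) in DMEM with 10% FBS, using a T0 viability plate and SAHA as reference standard.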

HCT 116 (colon) cells = assay: Anti-cancer screen (MTT), HCT 116; format: cell-based; settings: Homo sapiens, HCT-116, HCT116, 48 hours, MTT; for GI50: read-out: Cell growth inhibition HCT116 (Colon) GI50; for CC50: read-out: Cell growth inhibition HCT116 (Colon) LC50; for IC (TGI): read-out: Cell growth inhibition HCT116 (Colon) TGI
Method in brief: as §1

U251 (glioma) cells = assay: Anti-cancer screen (MTT), U251; format: cell-based; settings: Homo sapiens, U-251, U251, 48 hours, MTT; for GI50: read-out: Cell growth inhibition U251 (Glioma) GI50; for LC50 (concentration giving 50% net cell kill relative to the time-zero cell count): read-out: Cell growth inhibition U251 (Glioma) LC50; for IC (TGI): read-out: Cell growth inhibition U251 (Glioma) TGI
Method in brief: as §1

[2] = test system: NCIH460, HCT116 and U251 cells; assay: Anti-cancer screen, mean GI50 over cell lines; format: cell-based; settings: mean over cell lines; read-out: Cell growth inhibition Mean GI50
Method in brief: as §1

Structure (SMILES) | HDAC inhibition % (1 μM) [1] [%] | HDAC inhibition % (10 μM) [1] [%] | GI50 (NCIH460 (lung) cells) [µM] | LC50 (NCIH460 (lung) cells) [µM] | IC (TGI) (NCIH460 (lung) cells) [µM] | GI50 (HCT 116 (colon) cells) [µM] | CC50 (HCT 116 (colon) cells) [µM] | IC (TGI) (HCT 116 (colon) cells) [µM] | GI50 (U251 (glioma) cells) [µM] | LC50 (concentration giving 50% net cell kill relative to the time-zero cell count) (U251 (glioma) cells) [µM] | IC (TGI) (U251 (glioma) cells) [µM] | GI50 [2] [µM] | IC50 [1] [µM]
Nc1ccccc1NC(=O)c1ccc(CNC(=O)/C(=C/c2ccc(F)c(C(F)(F)F)c2)c2ccc(C(F)(F)F)cc2)cc1 [Compound 4, N-(2-Aminophenyl)-4-((3-(4-fluoro-3-trifluoromethylphenyl)-2-(4-trifluoromethylphenyl)acrylamido)methyl)benzamide] | 0.0 | 14.2 | 0.2 | 58.5 | 3.8 | 4.1 | 77 | 26 | 11.5 | > 100 | 41 | 5.3 | –
Nc1ccccc1NC(=O)c1ccc(CNC(=O)/C(=C/c2c(F)cc(F)cc2F)c2ccc(F)cc2)cc1 [Compound 13, N-(2-Aminophenyl)-4-((3-(2,4,6-trifluorophenyl)-2-(4-fluorophenyl)acrylamido)methyl)benzamide] | 9.4 | 18.2 | 34 | 93 | 66 | 8.9 | 90 | 50 | 3.4 | 48 | 8 | 15.4 | –
O=C(CCCCCNC(=O)/C(=C/c1ccccc1)c1ccccc1)NO [Compound 88, 6-(2,3-Diphenylacrylamido)-N-hydroxy hexanamide] | 81.5 | 95.4 | 21 | 91 | 57.5 | 5 | > 100 | 22.5 | 7.8 | 78 | 37.5 | 11.3 | –
CSc1ccc(/C=C(/C(=O)NCc2ccc(C(=O)Nc3ccccc3N)cc2)c2cccs2)cc1 [Compound 18, N-(2-Aminophenyl)-4-((3-(4-methylthiophenyl)-2-(thiophen-2-yl)acrylamido)methyl)benzamide] | 28.7 | 36.7 | 4.1 | > 100 | 20 | 5 | > 100 | 20 | 2.2 | 7 | 4 | 3.8 | –
O=C(NCc1ccc(C(=O)NO)cc1)/C(=C/c1ccc(F)cc1)c1ccc(C(F)(F)F)cc1 [Compound 50, 4-((2-(4-Trifluoromethyllphenyl)-3-(4-fluorophenyl)acrylamido)methyl)-N-hydroxybenzamide] | 50.1 | 87.1 | 38 | 92 | 69 | 22 | 88 | 55 | 43 | 87 | 72 | 34.3 | –
COc1ccc(/C=C(/C(=O)NCc2ccc(/C=C/C(=O)NO)cc2)c2ccc(F)cc2)cc1OC [Compound 77, (1E)-N-(4-(3-(Hydroxyamino)-3-oxoprop-1-enyl)benzyl)-2-(4-fluorophenyl)-3-(3,4-dimethoxyphenyl)acrylamide] | 90.6 | 98.5 | 2 | > 100 | 70 | 0.5 | 50 | 6 | 2.6 | > 100 | 19 | 1.7 | 0.05
O=C(CCCCCCNC(=O)/C(=C\c1ccccc1)c1ccccc1)NO [Compound 85, (2Z)-7-(2,3-Diphenylacrylamido)-N-hydroxy heptanamide] | 79.3 | 95.8 | 3.3 | 75 | 25 | 3.1 | > 100 | 23 | 4.8 | 80 | 27 | 3.7 | 0.38
